Results reported in patent EP0748792A1 (priority 1994, dated 1995).

Experiments:
[1] = system: white non-linear mice; conditions: administered perorally; species not given; cited from earlier work
[2] = system: total acetylating capability of the organism; test: Acetylating capability of white rats (sodium sulfacyl acetylation, arylamine content in urine); format: in vivo; conditions: agent 20 mg/kg i.p. 4 days; for Acetylating properties of the organism: Na sulfacyl acetylating in the organism of rats; for Sulfacyl isolation M ± m In acetylated form / Sulfacyl isolation M ± m In free form / Sulfacyl isolation M ± m Total: Na sulfacyl excretion in urine; for % of excretion from the dose In acetylated form / % of excretion from the dose In free form / Concentration in urine In acetylated form / Concentration in urine In free form: Na sulfacyl; for Excretion % from the dose: total Na sulfacyl excretion in urine
Method: It is known that intact animals, receiving sufficient doses of pantothenic acid, have accelerated reactions of arylamine biotransformation. Therefore, there is the possibility to regulate the acetylating processes in the bodies of people and animals. In the examples given below the total acetylating capability of the organism was assessed using the method of quantitative determination of the arylamine content in the urine examined.
As a subject for acetylating, aromatic amines were chosen, as their usage makes it possible to assess both the activity of N-acetylamine transferase and (indirectly) the content of acetyl CoA.
As a subject for examination sodium sulfacyl was chosen. […] 14 animals were included in each group. The examined agent was injected intraperitoneally at a dose of 20 mg/kg. On the 4th day, 4 hours after the last injection of the examined agent, the sodium sulfacyl solution in a dose of 20 mg/kg was injected intraperitoneally. All the rats were separated into exchangeable cages for urine gathering. The collected data were compared with the control groups of animals (group I - only sodium sulfacyl in a dose of 20 mg/kg, and group II - calcium pantothenate).

[3] = system: non-linear white rats; test: Subchronic toxicity in rats (2 months); format: in vivo
Method: 70 non-linear white rats of both sexes with average stated mass of 72 ± 5 g, divided into 7 groups, were used in the experiment. The first three groups of animals received ketopantothenate in 0.2 ml of distilled water in doses: 13.2 mg/kg (therapeutic dose of calcium D-pantothenate), 132 and 264 mg/kg (doses 10 and 20 times larger than the therapeutic dose) internally every day during the experiment. The next three groups of animals received the same doses of calcium D-pantothenate under the same conditions for comparison. The 7th group was the control one and included intact animals. The weighing of the animals was carried out once a week. Permanent observation on development and state of rats was carried out. […] The growth of the mass of the rats receiving ketopantothenate in different doses was 3.7 - 6.0 % higher than the growth of the mass of rats from the control group (correspondingly to doses). The growth of the mass of the rats receiving calcium D-pantothenate in comparison with the control group was approximately the same.
When the experiment was over the animals were slaughtering and the internal organs were examined visually.

[4] = system: white non-linear mice; test: Acute toxicity in mice; format: in vivo
Method: The animals were distributed into 7 groups, 6 animals in each group.
The mice were under observation for 14 days. Starting from the dose of 6g/kg in the first 2 hours after the agent administration the intoxication symptoms were observed: inertia, quickened breathing. Then these symptoms passed without consequences. The mice in all groups were practically healthy, no deviations in the state and behavior of the animals were observed.

## CC(C)(CO)[C@@H](O)C(=O)NCCC(=O)O [Ca D-pantothenate, calcium D-pantothenate, reference compound]
[1]
  LD50: 5920 mg/kg
[2]
  Acetylating properties of the organism: 24.0
  Excretion % from the dose: 93.0%
[2]; sulfacyl 20 mg/kg i.p.
  Sulfacyl isolation M ± m In acetylated form: 0.67 ± 0.04
  Sulfacyl isolation M ± m In free form: 2.12 ± 0.09
  Sulfacyl isolation M ± m Total: 2.79 ± 0.19
[2]; rats
  % of excretion from the dose In acetylated form: 22.3 ± 1.8%
  % of excretion from the dose In free form: 70.7 ± 6.0%
  Concentration in urine In acetylated form: 0.172 mg/mL
  Concentration in urine In free form: 0.54 mg/mL
[3]; rat, in vivo, 13.2 mg/kg
  Mass Final: 187.5 ± 18.4
  Mass growth during the experiment: 117.2 ± 7.7 g
  Mass growth during the experiment % to the control: 104.2%
[3]; rat, in vivo, 132 mg/kg
  Mass Final: 193.0 ± 14.6
  Mass growth during the experiment: 118.7 ± 10.4 g
  Mass growth during the experiment % to the control: 105.3%
[3]; rat, in vivo, 264 mg/kg
  Mass Final: 186.1 ± 16.2
  Mass growth during the experiment: 114.9 ± 8.8 g
  Mass growth during the experiment % to the control: 102.2%

## calcium ketopantothenate [Ca ketopantothenate]
[2]
  Acetylating properties of the organism: 25.9
  Excretion % from the dose: 89.2%
[2]; sulfacyl 20 mg/kg i.p.
  Sulfacyl isolation M ± m In acetylated form: 0.73 ± 0.05
  Sulfacyl isolation M ± m In free form: 2.09 ± 0.17
  Sulfacyl isolation M ± m Total: 2.82 ± 0.19
[2]; rats
  % of excretion from the dose In acetylated form: 23.1 ± 1.8%
  % of excretion from the dose In free form: 66.1 ± 3.2%
  Concentration in urine In acetylated form: 0.221 mg/mL
  Concentration in urine In free form: 0.63 mg/mL
  total acetylating capability of the organism of white rats (N-acetylation of aromatic amines): increased significantly
[2]; rats, sulfacyl 20 mg/kg i.p.
  excretion of acetylated product in comparison with the control group: tripled
  excretion of free product, lower than the control group: 10%
[4]; mice, single internal dose, first 2 hours after administration, symptoms passed without consequences
  dose from which intoxication symptoms (inertia, quickened breathing) were observed: ≥ 6000 mg/kg
[4]; mouse, in vivo, po, 336 h
  dose that was not toxic: 8000 mg/kg
[3]; rat, in vivo
  irritation of internal organs (visual examination): No irritation
[3]; rat, in vivo, 13.2 mg/kg
  Mass Final: 187.6 ± 12.5
  Mass growth during the experiment: 116.6 ± 8.2 g
  Mass growth during the experiment % to the control: 103.7%
[3]; rat, in vivo, 132 mg/kg
  Mass Final: 193.6 ± 17.3
  Mass growth during the experiment: 119.3 ± 10.3 g
  Mass growth during the experiment % to the control: 106.0%
[3]; rat, in vivo, 264 mg/kg
  Mass Final: 190.1 ± 21.0
  Mass growth during the experiment: 117.6 ± 11.0 g
  Mass growth during the experiment % to the control: 104.5%
[3]; rats, 13.2, 132 and 264 mg/kg internally every day, 2 months
  toxicity when used over a prolonged period: not toxic
